Results reported in US20150057366A1, “SYNTHESIS OF ELEMICIN AND TOPICAL ANALGESIC COMPOSITIONS” (priority 2012, published 2015).

Assay: Preliminary work by the applicant on topical analgesic effectiveness of elemicin compositions
Assay type: in vivo

Compound	elemicin content compositions require to start being effective as topical analgesics (topical composition, 30% more preferred, preliminary work)	analgesic effectiveness at the concentrations occurring in natural oils (topical, around 2.4-3.0% in nutmeg and manila elemi oils, up to around 10-14% in mace and some elemi oil)	effectiveness in analgesic compositions (topical analgesic compositions, work thus far by the inventor)
C=CCc1cc(OC)c(OC)c(OC)c1 [elemicin, 1,2,3-Trimethoxy-5-prop-2-enylbenzene]	at least 20%	analgesic effectiveness does not occur at such low doses	
C/C=C/c1cc(OC)c(OC)c(OC)c1 [iso-elemicin]			also effective
